The test deals with T1, human NaPi-IIb (Homo sapiens, UniProt O95436).
T1 construct: expressed in transfected cells
T1 sequence (O95436 1-690): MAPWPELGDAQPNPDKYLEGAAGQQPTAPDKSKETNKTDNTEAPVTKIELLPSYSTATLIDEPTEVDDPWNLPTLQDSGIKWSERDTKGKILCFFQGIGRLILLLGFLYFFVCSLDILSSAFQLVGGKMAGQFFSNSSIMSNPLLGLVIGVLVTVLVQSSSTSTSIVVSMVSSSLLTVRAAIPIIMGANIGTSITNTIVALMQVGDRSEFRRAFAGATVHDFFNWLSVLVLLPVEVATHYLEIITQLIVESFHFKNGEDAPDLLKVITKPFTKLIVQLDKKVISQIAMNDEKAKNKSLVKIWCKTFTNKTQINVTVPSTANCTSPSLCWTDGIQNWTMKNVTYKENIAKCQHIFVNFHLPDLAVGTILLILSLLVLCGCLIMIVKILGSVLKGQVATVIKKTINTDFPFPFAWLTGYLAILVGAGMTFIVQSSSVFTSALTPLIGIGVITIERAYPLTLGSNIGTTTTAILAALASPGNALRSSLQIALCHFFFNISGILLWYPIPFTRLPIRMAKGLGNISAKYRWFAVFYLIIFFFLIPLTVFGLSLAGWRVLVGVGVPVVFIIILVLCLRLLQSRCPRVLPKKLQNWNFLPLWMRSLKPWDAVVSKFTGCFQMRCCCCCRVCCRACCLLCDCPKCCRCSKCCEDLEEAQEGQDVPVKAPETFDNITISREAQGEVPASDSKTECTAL
The test can be described thus: Inhibitory effect on 33PO4 uptake into human NaPi-IIb-expressing CHO cells. The class given is cell-based. How it is done:
Test Example 2: Inhibitory Effect on PO4 Uptake into Human NaPi-IIb-Expressing Cell CHO cells were transfected with human NaPi-IIb expression plasmids, and a stably human NaPi-IIb-expressing cell line was obtained using G418. The human NaPi-IIb-expressing cells were inoculated to a 96-well plate and incubated overnight in a CO2 incubator. […] After a given time, a 1/20 volume of buffer A containing ^33PO4 was added thereto and reacted at room temperature. After washing with ice-cold buffer A, a liquid scintillator was added to each reaction mixture, and the amount of ^33PO4 uptake was measured using TopCount.

Where [1] appears, read: read-out: IC50 against 33PO4 uptake into human NaPi-IIb-expressing cells.

SMILES strings stand for the structures. Like-named read-outs stand apart in the source and are kept apart here.

Consider `CN1N(Cc2ccc(OCCCOC[C@H](O)CO)c(F)c2F)C(=O)C(C(=O)Nc2ccc(C(F)(F)F)cc2-c2ccc(C(F)(F)F)nc2)=C(O)C12CCC2` [Example 383, 6-[[4-[3-[(2R)-2,3-Dihydroxypropoxy]propoxy]-2,3-difluorophenyl]methyl]-9-hydroxy-5-methyl-7-oxo-N-[4-(trifluoromethyl)-2-[6-(trifluoromethyl)pyridin-3-yl]phenyl]5,6-diazaspiro[3.5]non-8-ene-8-carboxamide], for which the IC50 under setting [1] turned out to be 20.9 µM.
Take `Cc1c(C#N)ncnc1-c1cc(C(F)(F)F)ccc1NC(=O)C1=C(O)C(C)(C)N(C)N(Cc2cccc(F)c2F)C1=O` [Example 311]: the IC50 (read-out: IC50) came to 8.2 µM.
In the case of `COc1cc(-c2cc(C(F)(F)F)ccc2NC(=O)C2=C(O)[C@@]3(C)CCCN3N(Cc3cccc(F)c3F)C2=O)cnc1C#N` [Example 114, (4aR)—N-[2-(6-Cyano-5-methoxypyridin-3-yl)-4-(trifluoromethyl)phenyl]-1-[(2,3-difluorophenyl)methyl]-4-hydroxy-4a-methyl-2-oxo-6,7-dihydro-5H-pyrrolo[1,2-b]pyridazine-3-carboxamide], the IC50 (read-out: IC50) turned out to be 7.9 µM.
Consider `CN1N(Cc2ccc(OCCN[C@@H](CC(=O)O)C(=O)O)c(F)c2F)C(=O)C(C(=O)Nc2ccc(C(F)(F)F)cc2-c2cc(C(F)(F)F)ncn2)=C(O)C12CCCC2` [Example 381, (2S)-2-[2-[2,3-Difluoro-4-[[10-hydroxy-6-methyl-8-oxo-9-[[4-(trifluoromethyl)-2-[6-(trifluoromethyl)pyrimidin-4-yl]phenyl]carbamoyl]-6,7-diazaspiro[4.5]dec-9-en-7-yl]methyl]phenoxy]ethylamino]butanedioate], for which the IC50 under setting [1] was found to be 22 µM.
On the same count and under the same terms, then `CN1N(Cc2ccc(OCCNC(CC(=O)O)CC(=O)O)c(F)c2F)C(=O)C(C(=O)Nc2ccc(C(F)(F)F)cc2-c2cc(C(F)(F)F)ncn2)=C(O)C12CCCC2` [Example 382, 3-[2-[2,3-Difluoro-4-[[10-hydroxy-6-methyl-8-oxo-9-[[4-(trifluoromethyl)-2-[6-(trifluoromethyl)pyrimidin-4-yl]phenyl]carbamoyl]-6,7-diazaspiro[4.5]dec-9-en-7-yl]methyl]phenoxy]ethylamino]pentanedioate], with 21 µM.
Take `COc1ccc(OC)c(CN2C(=O)C(C(=O)Nc3ccc(C(F)(F)F)cc3-c3ccc(C(F)(F)F)nc3)=C(O)[C@@]3(C)CCCN23)c1` [Example 176]: the IC50 (read-out: IC50) was determined as 4 µM.
Still for that read-out and setting: then `C[C@]12CCCN1N(Cc1c(F)cc(OCCCCCOC[C@@H](O)CO)cc1F)C(=O)C(C(=O)Nc1ccc(C(F)(F)F)cc1-c1ccc(C(F)(F)F)nc1)=C2O` [Example 153], with 6.2 µM; and `C[C@]12CCCN1N(Cc1ccc(CCCOCCCO)c(F)c1F)C(=O)C(C(=O)Nc1ccc(C(F)(F)F)cc1-c1ccc(C(F)(F)F)nc1)=C2O` [Example 141], with 7.8 µM.
With `CN1N(Cc2ccc(OCCN3CCN(CCO)CC3)c(F)c2F)C(=O)C(C(=O)Nc2ccc(C(F)(F)F)cc2-c2cc(C(F)(F)F)ncn2)=C(O)C12CCC2` [Example 360], the IC50 under setting [1] is 23.1 µM.
Regarding `CCC1(CC)C(O)=C(C(=O)Nc2ccc(C(F)(F)F)cc2-c2cc(C(F)(F)F)ncn2)C(=O)N(Cc2ccc(OCCN3CCOCC3)c(F)c2F)N1C` [Example 291], for the setting “read-out: IC50”, the IC50 was determined as 14.7 µM.
With `C[C@]12CCCN1N(Cc1cccc(F)c1F)C(=O)C(C(=O)Nc1ccc(C(F)(F)F)cc1-c1ccc(C(F)(F)F)nc1)=C2O` [Example 90], under “read-out: IC50”, the IC50 turned out to be 2.4 µM.
On to `C[C@]12CCCN1N(Cc1cccc(F)c1F)C(=O)C(C(=O)Nc1ccc(Cl)cc1F)=C2O` [Example 76], for which the IC50 (read-out: IC50) was determined as 6.6 µM.
Still for that read-out and setting: with `CN1N(Cc2cccc(F)c2F)C(=O)C(C(=O)Nc2ccc(Cl)cc2-c2ccc(C(F)(F)F)nc2)=C(O)C12CCC2` [Example 256] the figure was 4.4 µM.
Turning to `CN(CCOc1ccc(CN2C(=O)C(C(=O)Nc3ccc(C(F)(F)F)cc3-c3cc(C(F)(F)F)ncn3)=C(O)C3(CCCC3)N2C)c(F)c1F)C1CCOC1` (centres unmarked) [Example 366], the IC50 under setting [1] is 16.3 µM.
`CN1[C@@H](C(C)(C)C)C(O)=C(C(=O)Nc2ccc(C(F)(F)F)cc2-c2ccc(C(F)(F)F)nc2)C(=O)N1Cc1cccc(F)c1F` [Example 238]: the IC50 (read-out: IC50) turned out to be 8.5 µM.
`C[C@]12CCCN1N(Cc1c(F)cccc1Cl)C(=O)C(C(=O)Nc1ccc(C(F)(F)F)cc1-c1cc(C(F)(F)F)ncn1)=C2O` [Example 210]: the IC50 (read-out: IC50) is 1.7 µM.
On the same count and under the same terms, with `Cc1ccccc1CN1C(=O)C(C(=O)Nc2ccc(C(F)(F)F)cc2-c2cc(C(F)(F)F)ncn2)=C(O)[C@@]2(C)CCCN12` [Example 185] the figure was 4.9 µM; with `CC(C)[C@H]1C(O)=C(C(=O)Nc2ccc(Cl)cc2-c2ccc(C(F)(F)F)nc2)C(=O)N(Cc2ccc(OCCN3CCOCC3)c(F)c2F)N1C` [Example 281], 18.8 µM.
Take `C[C@]12CCCN1N(Cc1cccc(F)c1F)C(=O)C(C(=O)Nc1ccc(Br)cc1-c1cc(C(F)(F)F)ncn1)=C2O` [Example 64]: for the setting “read-out: IC50”, the IC50 is 6.5 µM.
Same read-out and setting: with `C[C@]12CCCN1N(Cc1ccc(Cl)cc1)C(=O)C(C(=O)Nc1ccc(C(F)(F)F)cc1-c1cc(C(F)(F)F)ncn1)=C2O` [Example 182] the figure was 5.1 µM; with `C[C@]12CCCN1N(Cc1cccc(F)c1F)C(=O)C(C(=O)Nc1ccc(Cl)cn1)=C2O` [Example 79], 6.7 µM; with `C[C@]12CCCN1N(Cc1ccc(OCCN3CCOCC3)c(F)c1F)C(=O)C(C(=O)Nc1ccc(C(F)(F)F)nc1-c1cncc(C(F)(F)F)c1)=C2O` [Example 106], 12 µM.
Turning to `CCCN(CCN(C)CCOC)c1ccc(CN2C(=O)C(C(=O)Nc3ccc(C(F)(F)F)cc3-c3cc(C(F)(F)F)ncn3)=C(O)C3(CCCC3)N2C)c(F)c1F` [Example 444], under setting [1], the IC50 was found to be 7.4 µM.
Consider `CN1N(Cc2ccc(OCCCCCOC[C@H](O)CO)c(F)c2F)C(=O)C(C(=O)Nc2ccc(C(F)(F)F)cc2-c2ccc(C(F)(F)F)nc2)=C(O)C12CCC2` [Example 385], for which, under setting [1], the IC50 stood at 6.2 µM.
Consider `CN(CCOCCC(=O)NCC(O)CO)CCOc1ccc(CN2C(=O)C(C(=O)Nc3ccc(C(F)(F)F)cc3-c3cc(C(F)(F)F)ncn3)=C(O)C3(CCCC3)N2C)c(F)c1F` (centres unmarked) [Example 426], for which, under setting [1], the IC50 was determined as 26.1 µM.
Consider `C[C@]12CCCN1N(Cc1cccc(F)c1F)C(=O)C(C(=O)Nc1ccc(Br)cc1)=C2O` [Example 77], for which, for the setting “read-out: IC50”, the IC50 is 8.9 µM.
In the case of `Cc1c(-c2cc(C(F)(F)F)ccc2NC(=O)C2=C(O)[C@H](C(C)(C)C)N(C)N(Cc3ccc(OCCN4CCOCC4)c(F)c3F)C2=O)ncnc1C(F)(F)F` [Example 278], the IC50 (read-out: IC50) was determined as 6.6 µM.
On to `CN1N(Cc2ccc(OCCCCOCCCO)c(F)c2F)C(=O)C(C(=O)Nc2ccc(C(F)(F)F)cc2-c2cc(C(F)(F)F)ncn2)=C(O)C12CCCC2` [Example 399], for which the IC50 under setting [1] amounted to 7.8 µM.
For `C[C@]12CCCN1N(Cc1cc(F)c(F)cc1F)C(=O)C(C(=O)Nc1cc(F)c(Br)c(F)c1)=C2O` [Example 194], the IC50 (read-out: IC50) stood at 19.3 µM.
In the case of `CN1N(Cc2ccc(OCCn3cncn3)c(F)c2F)C(=O)C(C(=O)Nc2ccc(C(F)(F)F)cc2-c2cc(C(F)(F)F)ncn2)=C(O)C12CCC2` [Example 352], the IC50 under setting [1] is 16.7 µM.
Regarding `CN1N(Cc2ccc(NCCN3CCOCC3)c(F)c2F)C(=O)C(C(=O)Nc2ccc(C(F)(F)F)cc2-c2cc(C(F)(F)F)ncn2)=C(O)C12CCCC2` [Example 447], the IC50 under setting [1] amounted to 15.8 µM.
As to `CN1N(Cc2cccc(F)c2F)C(=O)C(C(=O)Nc2cc(C(F)(F)F)ccc2-c2ccc(C(F)(F)F)nc2)=C(O)C1(C)C` [Example 307], under “read-out: IC50”, the IC50 came out at 4.6 µM.
Turning to `COc1c(C#N)ncnc1-c1cc(C(F)(F)F)ccc1NC(=O)C1=C(O)[C@@]2(C)CCCN2N(Cc2cccc(F)c2F)C1=O` [Example 25], the IC50 (read-out: IC50) came out at 10.1 µM.
`C[C@]12CCCN1N(Cc1ccc(F)c(F)c1)C(=O)C(C(=O)Nc1ccc(C(F)(F)F)cc1-c1cc(C(F)(F)F)ncn1)=C2O` [Example 214]: the IC50 (read-out: IC50) worked out at 7 µM.
Take `CN1N(Cc2ccc(OCCN(CCO)CCO)c(F)c2F)C(=O)C(C(=O)Nc2ccc(C(F)(F)F)cc2-c2cc(C(F)(F)F)ncn2)=C(O)C12CCC2` [Example 351]: the IC50 under setting [1] turned out to be 25.5 µM.
Turning to `CN1N(Cc2cccc(F)c2F)C(=O)C(C(=O)Nc2ccc(C(F)(F)F)cc2-c2ccc(S(=O)(=O)N(C)C)cc2)=C(O)C1(C)C` [Example 308], the IC50 (read-out: IC50) was found to be 12.6 µM.
Same read-out and setting: then `COc1cccc(-c2cc(C(F)(F)F)ccc2NC(=O)C2=C(O)[C@@]3(C)CCCN3N(Cc3ccc(C#CCCCO)c(F)c3F)C2=O)c1OC` [Example 138], with 11.9 µM; and `CN1N(Cc2ccc(OCCN3CCOCC3)c(F)c2F)C(=O)C(C(=O)Nc2ccc(Cl)cc2-c2ccc(C(F)(F)F)nc2)=C(O)C12CCCC2` [Example 288], with 11 µM.

For orientation: IC50 means the concentration that gives 50% inhibition.

These data come from patent US9499553B2 (CHUGAI SEIYAKU KABUSHIKI KAISHA, priority 2013, dated 2016).
